The term IC50 denotes the midpoint of a concentration-inhibition curve.

The values that follow come from BindingDB's records for patent US20250011272 (Shanghaiinstitute of Materia Medica, 2025).

This assay deals with T1, ATP-citrate synthase (Homo sapiens, UniProt P53396).
T1 sequence (P53396 whole entry): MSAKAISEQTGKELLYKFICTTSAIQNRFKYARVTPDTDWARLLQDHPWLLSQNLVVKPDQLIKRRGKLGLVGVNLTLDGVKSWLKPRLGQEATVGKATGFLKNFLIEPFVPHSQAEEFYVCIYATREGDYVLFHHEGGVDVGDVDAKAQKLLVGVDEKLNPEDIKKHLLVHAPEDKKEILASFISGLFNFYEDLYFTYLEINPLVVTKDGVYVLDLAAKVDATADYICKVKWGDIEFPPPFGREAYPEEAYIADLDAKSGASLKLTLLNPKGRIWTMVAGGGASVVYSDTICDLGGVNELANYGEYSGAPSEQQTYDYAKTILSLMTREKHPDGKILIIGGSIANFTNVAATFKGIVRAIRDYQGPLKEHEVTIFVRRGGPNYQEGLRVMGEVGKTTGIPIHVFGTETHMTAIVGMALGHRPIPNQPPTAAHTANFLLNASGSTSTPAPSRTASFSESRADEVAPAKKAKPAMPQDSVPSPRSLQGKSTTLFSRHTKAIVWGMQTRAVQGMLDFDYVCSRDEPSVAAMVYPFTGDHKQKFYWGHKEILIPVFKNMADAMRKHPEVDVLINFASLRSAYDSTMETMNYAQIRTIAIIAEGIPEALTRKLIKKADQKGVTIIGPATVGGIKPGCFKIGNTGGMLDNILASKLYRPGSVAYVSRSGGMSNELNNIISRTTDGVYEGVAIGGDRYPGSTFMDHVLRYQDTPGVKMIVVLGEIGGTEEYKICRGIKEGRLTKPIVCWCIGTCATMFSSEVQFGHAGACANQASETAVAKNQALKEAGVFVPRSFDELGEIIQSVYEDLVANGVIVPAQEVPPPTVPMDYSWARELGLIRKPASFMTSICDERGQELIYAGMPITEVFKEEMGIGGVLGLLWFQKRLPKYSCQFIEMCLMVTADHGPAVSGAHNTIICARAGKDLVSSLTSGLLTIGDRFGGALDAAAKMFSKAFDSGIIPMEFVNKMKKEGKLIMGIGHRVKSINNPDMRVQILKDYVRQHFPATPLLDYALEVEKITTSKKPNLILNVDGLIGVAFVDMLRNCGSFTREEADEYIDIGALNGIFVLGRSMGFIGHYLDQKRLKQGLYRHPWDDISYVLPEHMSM
The assay can be described thus: ACLY Enzyme Activity Assay. How it is done: Experimental method: ADP Glo luminescence method was used for determination. It reflects the activity of ACLY enzyme by quantitatively detecting the amount of ADP, and the enzymatic reaction catalyzed by ACLY is proportional to the amount of ADP detected by the luminescent signal. Firstly, the compound is diluted with 10% DMSO, and then […] of compound dilution is added to a 5 μl reaction system, so that the final reaction system has a DMSO content of 2%. The enzymatic reaction catalyzed by ACLY was carried out at 37° C. for 30 minutes. 5 μl reaction mixture contained the following components: 40 mM Tris, pH 8.0, 10 mM MgCl2, 5 mM DTT, ATP, CoA, sodium citrate, and ACLY. After the enzymatic reaction was complete, 2.5 μl of ADP Glo reagent was added to each reaction system and incubated at room temperature for 1 hour. Afterwards, 5 μl of kinase detection reagent was added and incubated at room temperature for 30 minutes. The luminous signal was detected using Envision (PerkinElmer, USA).

Molecule `CC(CCCCCC/C=C/CCCCCCC(C)(C(=O)O)c1ccccc1)(C(=O)O)c1ccccc1` (stereo unspecified) [US20250011272, Example M16] returned an IC50 of 4000 nM.

`O=C(O)C1(CCCCCC/C=C/CCCCCCC2(C(=O)O)CC=CC2)CC=CC1` [US20250011272, Example M17] registered an IC50 of 3100 nM.

`O=C(O)C1(CCCCCC/C=C/CCCCCCC2(C(=O)O)CCCCC2)CCCCC1` [US20250011272, Example M18] displayed an IC50 of 16500 nM.

For the molecule `O=C(c1ccc(/C(=C/CCCCCCC2(C(=O)O)C=CCC2)CCCCCCC2(C(=O)O)C=CCC2)cc1)N1CCN(c2ccccn2)CC1` (stereo unspecified) [US20250011272, Example M38], the IC50 was found to be 760 nM.

The molecule `O=C(O)c1ccc(-c2ccc(N3CCN(C(=O)c4ccc(/C(=C/CCCCCCC5(C(=O)O)C=CCC5)CCCCCCC5(C(=O)O)C=CCC5)cc4)CC3)nc2)cc1` (stereo unspecified) [US20250011272, Example M39] had an IC50 of 1300 nM.

Regarding `O=C(c1ccc(/C(=C/CCCCCCC2(C(=O)O)C=CCC2)CCCCCCC2(C(=O)O)C=CCC2)cc1)N1CCN(c2ccccc2F)CC1` (stereo unspecified) [US20250011272, Example M40], it took 1690 nM to reach half-maximal inhibition (IC50).
